In US4522752A, “Retro-inverso analogues of the bradykinin potentiating peptide BPP5a and methods for their preparation” (E.N.I. Ente Nazionale Idrocarburi, priority 1983, dated 1985):
Read-outs that look alike come from different tables or passages of the source. Where a SMILES comes first, the peptide text is derived from it. [ ]: non-standard residue; d: D form. The star is where a group is joined. Hyp = O=C(O)[C@@H]1C[C@@H](O)CN1; pGlu = O=C1CC[C@@H](C(=O)O)N1; Bn = c1ccc(C*)cc1

Assays:
[1] = biological target: T1, angiotensin conversion enzyme (Oryctolagus cuniculus, UniProt P12822); experiment: Inhibition of the angiotensin conversion enzyme in vitro (method of Cushman and Cheung); format: biochemical; details: enzyme isolated from rabbit lungs, read-out: I50
T1 construct: the enzyme isolated from rabbit lungs; from tissue; host or cells: rabbit lung
T1 sequence (P12822 34-1310): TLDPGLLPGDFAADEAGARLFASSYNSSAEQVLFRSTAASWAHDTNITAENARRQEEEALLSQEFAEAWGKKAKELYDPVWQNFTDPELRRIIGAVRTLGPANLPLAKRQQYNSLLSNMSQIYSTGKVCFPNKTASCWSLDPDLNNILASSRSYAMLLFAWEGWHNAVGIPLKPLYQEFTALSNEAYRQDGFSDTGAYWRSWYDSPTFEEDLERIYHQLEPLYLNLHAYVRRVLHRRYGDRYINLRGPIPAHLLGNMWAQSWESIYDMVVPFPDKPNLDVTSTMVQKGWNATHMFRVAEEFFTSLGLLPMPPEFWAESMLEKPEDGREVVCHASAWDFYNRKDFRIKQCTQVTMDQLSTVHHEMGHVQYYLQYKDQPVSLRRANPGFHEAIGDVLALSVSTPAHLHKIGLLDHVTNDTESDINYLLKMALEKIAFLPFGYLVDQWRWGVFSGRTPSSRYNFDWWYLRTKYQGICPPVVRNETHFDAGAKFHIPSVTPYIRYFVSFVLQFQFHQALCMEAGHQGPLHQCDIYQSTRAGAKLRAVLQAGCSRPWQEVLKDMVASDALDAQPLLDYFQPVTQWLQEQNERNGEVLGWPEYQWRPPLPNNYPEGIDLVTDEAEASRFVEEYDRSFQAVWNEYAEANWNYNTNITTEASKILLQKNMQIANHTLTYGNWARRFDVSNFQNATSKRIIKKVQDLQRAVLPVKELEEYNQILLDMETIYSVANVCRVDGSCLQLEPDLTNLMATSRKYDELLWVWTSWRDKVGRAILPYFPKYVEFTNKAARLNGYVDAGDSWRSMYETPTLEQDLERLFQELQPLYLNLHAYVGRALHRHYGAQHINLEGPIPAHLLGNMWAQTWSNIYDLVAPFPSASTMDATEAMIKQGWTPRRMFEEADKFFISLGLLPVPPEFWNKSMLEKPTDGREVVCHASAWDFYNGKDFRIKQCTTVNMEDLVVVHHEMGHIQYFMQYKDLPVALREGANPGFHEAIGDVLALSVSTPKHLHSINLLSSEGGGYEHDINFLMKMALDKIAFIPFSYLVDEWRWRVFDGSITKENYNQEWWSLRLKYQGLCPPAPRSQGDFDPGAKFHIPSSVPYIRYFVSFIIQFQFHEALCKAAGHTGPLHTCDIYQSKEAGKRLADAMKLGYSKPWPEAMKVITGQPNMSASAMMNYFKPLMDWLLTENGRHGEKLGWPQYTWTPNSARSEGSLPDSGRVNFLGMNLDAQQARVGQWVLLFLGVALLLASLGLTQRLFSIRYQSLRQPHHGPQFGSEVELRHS
Procedure: The inhibition of the angiotensin conversion enzyme by the compounds of general formula (I) is measured in vitro by the enzyme isolated from rabbit lungs by the method of Cushman and Cheung [Biochem. Pharmacol., 20, 1637 (1971)].

[2] = biological target: T1, angiotensin conversion enzyme; details: literature value given in Table 1; read-out: I50 (lit.); cited from earlier work
[3] = oral administration; needs intravenous administration; cited from earlier work

`C[C@H](NC(=O)[C@H](Cc1ccccc1)NC(=O)[C@H](CCCCN)NC(=O)[C@@H]1CCC(=O)N1)C(=O)N1C[C@H](OCc2ccccc2)C[C@H]1C(=O)O` [Glp--Lys--Phe--Ala--Hyp(OBz), pyroglutamyl-lysyl-phenylalanyl-alanyl-(4-benzyloxy)-proline] ([pGlu]KFA[Hyp](Bn)-OH) gave an IC50 [1] of 110 nM.

In the case of `C[C@H](NC(=O)[C@H](Cc1ccccc1)NC(=O)[C@H](CCCCN)NC(=O)[C@@H]1CCC(=O)N1)C(=O)N1CCC[C@H]1C(=O)O` [Glp--Lys--Phe--Ala--Pro] ([pGlu]KFAP-OH), the IC50 [1] is given as 130 nM and the IC50 [2] is given as 70 nM.

For `C[C@H](NC(=O)C(Cc1ccccc1)C(=O)N[C@H](CCCCN)C(=O)NC1CCC(=O)N1)C(=O)N1CCC[C@H]1C(=O)O` (stereo partly drawn) [gGlp--D-Lys--mPhe--Ala--Pro, gem-pyroglutamyl-D-lysyl-(R,S)-malonyl-(2-benzyl)-alanyl-proline], the IC50 [1] was 85000 nM.

In the case of `CC[C@H](C)[C@H](NC(=O)[C@H](CCC(N)=O)NC(=O)[C@@H]1CCCN1C(=O)[C@H](CCCNC(=N)N)NC(=O)[C@@H]1CCCN1C(=O)[C@H](Cc1c[nH]c2ccccc12)NC(=O)[C@@H]1CCC(=O)N1)C(=O)N1CCC[C@H]1C(=O)N1CCC[C@H]1C(=O)O` [teprotide], the oral activity [3] is listed as “inactive orally”.
